The values that follow come from US20240299353A1, “COMPOSITIONS AND METHODS FOR TREATING […] 5-MEO-DMT” (Alvarius Pharmaceuticals Ltd., priority 2021, published 2024).

SMILES strings stand for the structures. Several values for one entry are separate records, joined by “and”; a condition that tells them apart may be missing. Equal values may be shown once.

In one assay the test system is rats. Put plainly: Forced swim test. The following applies: cohort 2; for immobility or time spent swimming: between treatment groups. The format is in vivo. On the procedure:
In this instance the animals were 9 weeks old at the initiation of drug exposures and we selected just the high (20 mg/kg) dose of 5-MeO-DMT from the molecular study. […] Due to the number of behavioral paradigms to be completed by each animal we divided the study into two cohorts staggered by two weeks with 8 animals coming from each cohort to make up the 16 animals for each treatment group. 23 hours after 5-MeO-DMT administration the animals were introduced to the open field arena where they were allowed to freely explore the area for 5 mins. Following the open field test (OFT) animals were returned to their home cage for 2 hours before beginning either the elevated plus maze (EPM) or pre-pulse inhibition (PPI) testing. 24 hours after completing the OFT animals were returned to the chamber for the first session in novel object (NO1) testing. The animals were returned to their home cage for 2 hours before beginning the EPM or PPI test. 24 hours after NO1 the animals returned to the open field chamber for the second session in novel object (N02) testing. After completing N02 animals were returned to their home cage for 2 hours before they underwent the forced swim test (FST) pre-test. 24 hours later the animals were returned to the FS cylinders for the FST. Upon completion of the FST all animals were euthanized. A timeline of this experimental cohort is described in FIG. 8A.
The experiment was conducted as described for cohort 1 for the first 13 days of injections. There are a number of notable differences in experimental procedures between the two cohorts of animals to be highlighted. […] Finally, the dose of 5-MeO-DMT was reduced to 10 mg/kg. […]
The FST apparatus consisted of a clear Plexiglas cylinder measuring 80 cm tall, 20 cm in diameter and filled with 40 cm of 24+1° C. water. […] 24 hours later, rats were again placed in the FST apparatus for 5 min and their activity was video recorded (FIG. 12A-12B). Each video was scored for immobility, swimming, and climbing behavior by trained blinded observers.

Another assay has as its system G9a. The following applies: repeated cocaine; cited from earlier work.
The subject of the next assay is hippocampal proteins. Put plainly: Hippocampal LC-MS/MS proteomics and PANTHER pathway overrepresentation. It is filed as in vivo, Male Wistar rats. The note with it: hippocampus. How it is done: These treatment groups were used for the molecular assessment of addiction-linked markers.
Due to incompatibilities between components of the lysis buffer in the High-Performance Liquid Chromatography (HPLC) mass spectrometer the samples were first precipitated in 100% (w/v) Trichloroacetic acid (TCA). 1 volume of TCA stock was added to 4 volumes of protein sample. The mixture was incubated for 10 mins at 4° C. before centrifugation at 14,000 RPM for 5 mins. The supernatant was discarded and the pellet was washed in acetone. The acetone was then discarded and the pellet was air-dried before resuspension in 6M urea (Sigma) made in 50 mM ammonium bicarbonate (ABC, Sigma). 100 mM dithiothreitol (DTT) was added to the sample for a final concentration of 5 mM and the sample was incubated while vortexing at 60° C. for 30 mins. Next, 200 mM iodoacetemide (IAA, Sigma) solution was added and the sample was incubated in the dark at room temperature for 30 mins. The sample was then diluted with 50 mM ABC to give a final concentration of ≤2M Urea before the addition of trypsin. 50 μl of reduced, alkylated sample was added to a vial of trypsin singles, proteomic grade (Sigma) and incubated at 37° C. overnight while vortexing. 1% acetic acid (AA) was added to the sample to stop the trypsination the following day. Sample clean-up was performed using Stage Tips for a 10 μl pipette with a 0.6 μl C18 resin (Merck) and clean up was carried out as follows; Tip was equilibrated (10 μl of 50% acetonitrile (ACN) in 0.1% trifluoroacetic acid (TFA) was aspirated into the tip and dispensed to waste x2, 10 μl of 0.1% TFA was aspirated and dispensed to waste x2), peptides were bound to resin and washed (10 μl of sample was aspirated and dispensed x5 cycles, 10 μl of 0.1% TFA was aspirated and dispensed to waste x2) before being eluted into a collecting tube containing 30 μl of 50% ACN in 0.1% TFA (aspirate and dispense the sample through Stage Tip x3). This process was repeated three times for each sample using the same Stage Tip and collection tube. Samples were dried in a vacuum centrifuge for 30 mins at 60° C. and resuspended in 30 μl of Buffer A (97% water, 2.5% ACN and 0.5% AA) and stored at −20° C.
Digested samples were run on a Thermo Scientific Q Exactive mass spectrometer connected to a Dionex Ultimate 3000 (RSLCnano) chromatography system. Tryptic peptides were resuspended in 0.1% formic acid. Each sample was loaded onto a fused silica emitter (75 μm ID, pulled using a laser puller (Sutter Instruments P2000)), packed with Recrocil Pur C18 (1.9 μm) reverse phase media and was separated by an increasing acetonitrile gradient over 47 mins at a flow rate of 250 nL/min. The mass spectrometer was operated in positive ion mode with a capillary temperature of 320° C., and with a potential of 2300V applied to the frit. All readings were acquired with the mass spectrometer operating in automatic data dependent switching mode. A high resolution (70,000) MS scan was performed using the Q Exactive to select the most intense ions prior to MS/MS analysis using Higher-energy collisional dissociation (HCD). To identify peptides and proteins the MS/MS spectra were searched against the rat UniProt database. The database searches were performed with carbamidomethylation (C) as a fixed modification and acetylation (protein N terminus) and oxidation (M) as variable modifications. Filtering by a false discovery rate (FDR) was applied for peptides and proteins (0.01). For the generation of label-free quantitative (LFQ) ion intensities for protein profiles, signals of corresponding peptides in different LCMS/MS runs were matched by MaxQuant.
The Perseus statistical software contained in the MaxQuant package was used to analyze ion intensities (LFQ Intensity). Protein identities were filtered to eliminate the identifications from the reverse database, only identified by site and common contaminants.

In the next assay the target is 5-HT2AR (Rattus norvegicus, UniProt P14842). The following applies: read-out: Ki for the 5-HT2AR; non-canonical signaling, liberation of arachidonic acid; cited from earlier work.
For a further assay, the system named is cerebral organoids. The note with it: 5-MeO-DMT treated cerebral organoids; cited from earlier work.

Chain of 5-HT2AR (P14842 whole entry): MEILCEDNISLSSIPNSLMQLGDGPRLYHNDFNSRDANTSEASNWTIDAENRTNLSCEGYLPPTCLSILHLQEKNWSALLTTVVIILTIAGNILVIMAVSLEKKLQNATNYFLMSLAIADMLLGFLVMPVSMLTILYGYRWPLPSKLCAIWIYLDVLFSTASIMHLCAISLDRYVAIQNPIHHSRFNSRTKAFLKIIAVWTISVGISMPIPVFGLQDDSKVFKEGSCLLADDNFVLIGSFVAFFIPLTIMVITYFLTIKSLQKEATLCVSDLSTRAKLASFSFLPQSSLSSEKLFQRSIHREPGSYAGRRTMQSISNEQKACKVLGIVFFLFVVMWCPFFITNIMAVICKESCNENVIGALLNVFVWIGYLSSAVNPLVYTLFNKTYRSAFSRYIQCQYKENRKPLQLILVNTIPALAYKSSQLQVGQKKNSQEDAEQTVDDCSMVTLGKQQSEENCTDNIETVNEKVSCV

On to `COC(=O)[C@H]1[C@@H](OC(=O)c2ccccc2)C[C@@H]2CC[C@H]1N2C.Cl` [cocaine, cocaine hydrochloride, reference compound], for which the “immobility or time spent swimming” value in the assay with rats was “no differences in immobility or time spent swimming”. Besides, the “reduction in G9a expression” value with G9a is listed as 19%. The “differentially expressed proteins vs saline+vehicle” value in the assay on hippocampal proteins (24 h, cocaine+vehicle, p<0.05, fold change ≥±20%) is recorded as 340 proteins. The “pathways significantly overrepresented (PANTHER)” value with hippocampal proteins (cocaine group) came to 157 pathways. For the same compound, the top overrepresented pathways result with hippocampal proteins (cocaine-experienced animals) was “regulation of metabolic processes, protein translation and synaptic signalling”.
One may read the Ki as the equilibrium dissociation constant of an inhibitor or competing ligand from its target. In the case of `COc1ccc2[nH]cc(CCN(C)C)c2c1` [5-MeO-DMT, 5-methoxy-N,N-dimethyltryptamine], the “immobility or time spent swimming” value in the assay with rats was “no differences in immobility or time spent swimming”. For the same compound, the climbing time entry in the assay with rats (cocaine and 5-MeO-DMT (10 mg/kg) combination relative to control) was “significant increase in climbing time”. Besides, the Ki on 5-HT2AR was 190 nM. Moreover, the “of the 118 5-MeO-DMT differentially expressed proteins, shared with the combination” value in the assay on hippocampal proteins (10 mg/kg 5-MeO-DMT) is listed as 45 proteins. Besides, the “pathways significantly overrepresented (PANTHER)” value was found to be 16 pathways in the assay with hippocampal proteins (10 mg/kg 5-MeO-DMT), 24 pathways with hippocampal proteins (20 mg/kg 5-MeO-DMT), 309 pathways in the assay on hippocampal proteins (cocaine+10 mg/kg 5-MeO-DMT) and 67 pathways in the assay on hippocampal proteins (cocaine+20 mg/kg 5-MeO-DMT). In addition, the top overrepresented pathways result was “altered protein translation and synthesis” in the assay on hippocampal proteins (10 mg/kg 5-MeO-DMT); “regulation of synapse organisation, structure and activity as well as modulating chemical transmission” with hippocampal proteins (20 mg/kg 5-MeO-DMT); “NAD and NADH metabolism, positive regulation of lamellipodium assembly and modulation of synaptic signaling” in the assay with hippocampal proteins (cocaine+10 mg/kg 5-MeO-DMT); “positive regulation of telomerase activity, negative regulation of apoptosis and regulation of synapse organization, structure and activity” in the assay on hippocampal proteins (cocaine+20 mg/kg 5-MeO-DMT). In addition, the “of the 120 5-MeO-DMT differentially expressed proteins, shared with the combination” value in the assay on hippocampal proteins (20 mg/kg 5-MeO-DMT) is on record as 57 proteins. Moreover, the “differentially expressed proteins vs saline+vehicle” value with hippocampal proteins (24 h, 10 mg/kg 5-MeO-DMT) was 118 proteins; in the assay on hippocampal proteins (24 h, 20 mg/kg 5-MeO-DMT), 120 proteins; with hippocampal proteins (24 h, cocaine+10 mg/kg 5-MeO-DMT, 10 mg/kg), 541 proteins and 544 proteins; with hippocampal proteins (24 h, cocaine+20 mg/kg 5-MeO-DMT) it was 221 proteins. Also, in the assay with hippocampal proteins (24 h, 10 mg/kg and 20 mg/kg 5-MeO-DMT alone), the “differentially expressed proteins shared between the two concentrations” value stood at 32 proteins. Further, the “of the 340 cocaine differentially expressed proteins, remaining in the combination” value in the assay on hippocampal proteins (cocaine+10 mg/kg 5-MeO-DMT) amounted to 245 proteins; with hippocampal proteins (cocaine+20 mg/kg 5-MeO-DMT), 85 proteins. Moreover, the “differentially expressed proteins shared between the combination groups” value in the assay with hippocampal proteins (cocaine+10 and cocaine+20 mg/kg 5-MeO-DMT) is 153 proteins. For the same compound, the mGluR5 receptor expression result in the assay with cerebral organoids is recorded as “decrease in mGluR5 receptor expression”.
